The source of these data is patent US20240229155A1, “M[…] FOR THE TREATMENT OF GLIOBLASTOMA AND OTHER CANCERS” (Duke University, priority 2021, published 2024).

In one experiment the test system is STING. Put plainly: Western blot of STING after decitabine treatment of GBM cell lines. In kind it is cell-based, human. Conditions: 250 nM decitabine for 5 days vs DMSO. Here is the method:
(§1) Cells were seeded at density of 30,000 cells/well in 6-well plates. Each cell line was seeded in 2 mL of the same media in which they were cultured (cells were cultured in media according to ATCC). The following day (Day 0), a volume of decitabine working solution was added directly to the wells to reach the desired concentration. In the DMSO control wells, DMSO was diluted 1:100 in PBS, with the same amount of DMSO:PBS solution added as that of the decitabine condition. On days 1-5, the media was refreshed, such that the media being added to the wells contained the respective decitabine/DMSO concentration and were prepared immediately before their addition. The cells were harvested for protein on day 6.
(§2) Western Blots: Cells were washed 2× with ice cold 1×PBS and lysed on ice with RIPA lysis buffer, containing protease/phosphatase inhibitors, and benzonase. Lysates were spun down for 15 min 14,000×g at 4 degrees C. Protein was denatured, ran on 4-12% NuPage Bis-Tris gels in 1×MOPS buffer, and transferred to PVDF membrane. The membrane was blocked in 5% Blotting grade blocker (BioRad 170-6404) dissolved in 1×TBS 0.1% TWEEN. Primary antibody was added according to manufacturer's protocol and incubated overnight at 4° C. Membranes were then incubated with secondary HRP antibody and screened with Supersignal Pico ECL. […]
In general terms: In western blotting, separated proteins are transferred to a membrane and probed.

Experiment [1] has as its system STING promoter CpG site cg16983159. Put plainly: cg16983159 site-specific methylation qPCR assay after decitabine treatment of GBM cell lines. The class given is cell-based, human. Conditions: 250 nM decitabine for 5 days vs DMSO; GBM cell lines with high STING promoter methylation. Here is the method: (§3) Decitabine Treatment: Decitabine was dissolved in DMSO to produce a stock concentration of 10 mM. This stock concentration was diluted directly before each treatment at a 1:100 ratio with 1×PBS to create the working solution with a concentration of […].
Cells were seeded at density of 30,000 cells/well in 6-well plates. Each cell line was seeded in 2 mL of the same media in which they were cultured (cells were cultured in media according to ATCC). The following day (Day 0), a volume of decitabine working solution was added directly to the wells to reach the desired concentration. In the DMSO control wells, DMSO was diluted 1:100 in PBS, with the same amount of DMSO:PBS solution added as that of the decitabine condition. […]
STING Methylation qPCR Methods: Bisulfite conversion of 25 ng to lug gDNA was done using the EpiTect Bisulfite Kit (Qiagen 59104) following manufactures protocol. […] Percent methylation was calculated as 1/(1+1/(2^-ΔCt))×100 with ΔCt=FAM −VIC. […]
cg16983159 site-specific methylation qPCR assay: A site-specific qPCR assay for measuring cg16983159 methylation was developed using the method described by Yu et al. (Yu et al., 2019). […] Percent methylation was calculated as 100%×1/1+2ΔCt where ΔCt=FAM−VIC. […]
A general note: In qPCR the cycle at which signal appears reflects the starting amount.

Experiment [2] relates to CpG sites in a ~400 nucleotide window centered on cg16983159. The experiment is described as follows: Semi-quantitative methylation sequencing assay of bisulfite-treated glioma cell lines. The class given is cell-based, human. Particulars: LN229 and U138 cells, decitabine vs DMSO. Here is the method: Semi-quantitative methylation sequencing assay: Bisulfite treated DNA was PCR amplified for 40 cycles at 62° C. annealing temperature. Amplification reaction—10 μM of each primer, 25 mM MgCl2, 2.5 mM dNTPs, lx buffer, 0.7U HotStarTaq (Qiagen). Amplicons were sent to Azenta for purification and sanger sequencing with difficult template. Sequence traces were aligned. Percent methylation at the CpGs in the amplicons were estimated by comparing the C peak to the T peak.
Cell treatment with decitabine: Decitabine (Millipore-Sigma) was dissolved in DMSO to stock concentration of 10 mM and diluted directly before each treatment in 1×PBS. Cells were seeded at 3×10^4 cells/well in 6-well plates (protein) or 1.7×10^5 cells in 10 cm dishes (RNA/DNA). Matched concentrations of DMSO was used as a control. Media was refreshed with treatment daily for 5 days. Cells were harvested for protein, RNA and DNA on day 6, or treated with 2′3′-cGAMP for an additional 4 and 24 h and harvested for protein.

The subject of another experiment is STING pathway. Put plainly: Western blot for STING pathway activation: decitabine pretreatment followed by 2′3′-cGAMP. The class given is cell-based, human. Conditions: for STING pathway activation (pTBK1 and pIRF3 expression) in response to cGAMP: 250 nM decitabine for 5 days, then 2′3′-cGAMP, protein at 4 h and 24 h, cell lines previously unresponsive to cGAMP. Here is the method:
(§4) Western Blots: Cells were washed 2× with ice cold 1×PBS and lysed on ice with RIPA lysis buffer, containing protease/phosphatase inhibitors, and benzonase. Lysates were spun down for 15 min 14,000×g at 4 degrees C. Protein was denatured, ran on 4-12% NuPage Bis-Tris gels in 1×MOPS buffer, and transferred to PVDF membrane. The membrane was blocked in 5% Blotting grade blocker (BioRad 170-6404) dissolved in 1×TBS 0.1% TWEEN. Primary antibody was added according to manufacturer's protocol and incubated overnight at 4° C. Membranes were then incubated with secondary HRP antibody and screened with Supersignal Pico ECL. A ChemiDoc MP (BioRad) and an iBright 1500FL imager (ThermoFisher) were used to detect the ECL signal.
Protein Isolation and Western Blotting: Cells were washed 2× with ice cold 1×PBS and lysed on ice with RIPA lysis buffer, containing protease/phosphatase inhibitors, and benzonase. Lysates were spun down for 15 min at 14,000×g at 4° C. Protein was denatured at 95° C. for 5 min, ran on 4-12% NuPage Bis-Tris gels in 1×MOPS buffer, and transferred to PVDF membrane. The membrane was blocked in 5% Blotting grade blocker (BioRad) dissolved in 1×TBS 0.1% TWEEN20. Primary antibody was added according to manufacturer's protocol and incubated overnight at 4° C. Membranes were incubated with secondary HRP antibody (Cell Signaling) and screened with Supersignal Pico ECL (ThermoFisher). A ChemiDoc MP (BioRad) and an iBright 1500FL imager (ThermoFisher) were, used to detect the ECL signal. Primary antibodies were used to the following targets: pSTING (Ser366), STING, cGAS, pTBK1 (Ser172), TBK1, pIRF3 (Ser396), IRF3, pSTAT1 (Tyr701), STAT1, IFIT1, ISG15, DNMT1, β-actin (Cell Signaling), IRF3 (Biolegend).
Cell treatment with decitabine: Decitabine (Millipore-Sigma) was dissolved in DMSO to stock concentration of 10 mM and diluted directly before each treatment in 1×PBS. Cells were seeded at 3×10^4 cells/well in 6-well plates (protein) or 1.7×10^5 cells in 10 cm dishes (RNA/DNA). Matched concentrations of DMSO was used as a control. Media was refreshed with treatment daily for 5 days. […]

Another experiment concerns the target T1, DNMT1 (Homo sapiens, UniProt P26358).
T1 construct: Western blot analysis showing DNMT1 and STING expression following decitabine or DMSO treatment; endogenous in cells; host or cells: GBM/glioma cell lines
The experiment is described as follows: Western blot of DNMT1 after decitabine treatment of GBM cell lines. In kind it is cell-based. Particulars: 250 nM decitabine for 5 days vs DMSO; GBM cell lines with high STING promoter methylation. The method, then:
as §1, §2

Another experiment relates to STING (TMEM173) mRNA. The experiment is described as follows: STING mRNA expression (qPCR) after decitabine treatment of GBM cell lines. In kind it is cell-based, human. Conditions: 250 nM decitabine for 5 days vs DMSO, normalized to beta actin. Here is the method: as §3
Cells were seeded at density of 30,000 cells/well in 6-well plates. Each cell line was seeded in 2 mL of the same media in which they were cultured (cells were cultured in media according to ATCC). The following day (Day 0), a volume of decitabine working solution was added directly to the wells to reach the desired concentration. […]
Protocol for mRNA Expression: RNA expression was measured by converting 250 ng to lug of RNA to cDNA with the iScript cDNA conversion kit (BioRad Cat #1708891) in 20 μL total. […]
20× PrimePCR Primers targeting B-actin (BioRad #qHsa CED0036269), and TMEM173 (BioRad #qHsa CID00010565), were used. Fold change (2^(−Delta Delta Ct) was calculated using B-actin as the housekeeping gene.
Quantitative gene expression analysis: RNA/DNA were co-extracted from cells using Qiagen AllPrep DNA/RNA/miRNA Universal Kit mini kit (Qiagen) for decitabine experiments, and Quick-DNA/RNA™Miniprep Kit for baseline cell expression/methylation, following the manufacturer's protocols. RNA expression was measured by converting 250 ng to 1 μg RNA to 25 cDNA with the iScript cDNA conversion kit (BioRad). […]

The subject of the next experiment is cGAS. Put plainly: Western blot of cGAS after decitabine treatment of GBM cell lines. In kind it is cell-based, human. Particulars: 250 nM decitabine for 5 days vs DMSO. Here is the method:
as §1, §2

The test system of experiment [3] is cGAS/STING DNA sensing pathway. The experiment is described as follows: Response of GBM cell lines to cGAS (ISD) and STING (cGAMP) agonists, Western blot. In kind it is cell-based, human. Here is the method: as §4
Protein Isolation and Western Blotting: Cells were washed 2× with ice cold 1×PBS and lysed on ice with RIPA lysis buffer, containing protease/phosphatase inhibitors, and benzonase. Lysates were spun down for 15 min at 14,000×g at 4° C. Protein was denatured at 95° C. for 5 min, ran on 4-12% NuPage Bis-Tris gels in 1×MOPS buffer, and transferred to PVDF membrane. The membrane was blocked in 5% Blotting grade blocker (BioRad) dissolved in 1×TBS 0.1% TWEEN20. Primary antibody was added according to manufacturer's protocol and incubated overnight at 4° C. Membranes were incubated with secondary HRP antibody (Cell Signaling) and screened with Supersignal Pico ECL (ThermoFisher). […]

Experiment [4] relates to GBM tissue slice cultures. Put plainly: Ex vivo GBM slice culture assay with 2′3′-cGAMP. The class given is cell-based, human. Conditions: 5 μg/ml, 48 h, TAMC vs tumor cells. The method, then:
GBM slice culture assay: Surgically resected, de-identified newly diagnosed GBM tissue was acquired under a Duke IRB approved protocol within hours of resection. Slice culture studies in this manuscript are extended/additional analyses of slice culture data sets reported in a prior study where the pattern of PRR signaling vs virotherapy was compared (Brown et al., 2021). A portion (˜25%) of fresh tissue was analyzed by flow cytometry to determine relative immune cell subset densities using the following flow cytometry panel after 1:20 Human Tru-Stain FcX treatment (BioLegend): CD45-BUV395 (BD Biosciences), CD14-BV421, CD33-BV510, CD49d-BV605, HLA-DR-BV786, CD31-FITC, CD3/19-BUV737, CD11b-APC, CD16-BV711, CD15-APC-fire7, and either CD155-PE or isotype control-PE antibody (all BioLegend); viability stain (7-AAD, BioLegend) was added after staining. Fresh remaining tissue was sliced into quarters, followed by slicing to −2 mm diameter fragments with a #10 scalpel (Hill-Rom). Slices were cultured in RPMI-1640 (Invitrogen) supplemented with 10% FBS (Sigma-Aldrich), 100 ng/ml EGF (R&D Biosystems); 5 μg/ml insulin (Gibco); 100 ng/ml hydrocortisone (Sigma-Aldrich). […] Supernatant cytokines were measured using the Human Antiviral Legendplex kit and Human Pro-inflammatory Chemokine kit (both BioLegend), per manufacturer's instructions. […]

The test system of another experiment is GBM cell suspensions. Put plainly: Cytokine secretion of CD14-separated GBM cell suspensions after 2′3′-cGAMP. The class given is cell-based, human. Conditions: GBM cell suspensions separated by CD14; 48 h.
The subject of experiment [5] is GBM tissue slice cultures. Particulars: ex vivo GBM tissue slice cultures (Brown et al., 2021); cited from earlier work.

Entries after “also recorded” stand apart in the source; their conditions may differ.

T1 sequence (P26358 whole entry): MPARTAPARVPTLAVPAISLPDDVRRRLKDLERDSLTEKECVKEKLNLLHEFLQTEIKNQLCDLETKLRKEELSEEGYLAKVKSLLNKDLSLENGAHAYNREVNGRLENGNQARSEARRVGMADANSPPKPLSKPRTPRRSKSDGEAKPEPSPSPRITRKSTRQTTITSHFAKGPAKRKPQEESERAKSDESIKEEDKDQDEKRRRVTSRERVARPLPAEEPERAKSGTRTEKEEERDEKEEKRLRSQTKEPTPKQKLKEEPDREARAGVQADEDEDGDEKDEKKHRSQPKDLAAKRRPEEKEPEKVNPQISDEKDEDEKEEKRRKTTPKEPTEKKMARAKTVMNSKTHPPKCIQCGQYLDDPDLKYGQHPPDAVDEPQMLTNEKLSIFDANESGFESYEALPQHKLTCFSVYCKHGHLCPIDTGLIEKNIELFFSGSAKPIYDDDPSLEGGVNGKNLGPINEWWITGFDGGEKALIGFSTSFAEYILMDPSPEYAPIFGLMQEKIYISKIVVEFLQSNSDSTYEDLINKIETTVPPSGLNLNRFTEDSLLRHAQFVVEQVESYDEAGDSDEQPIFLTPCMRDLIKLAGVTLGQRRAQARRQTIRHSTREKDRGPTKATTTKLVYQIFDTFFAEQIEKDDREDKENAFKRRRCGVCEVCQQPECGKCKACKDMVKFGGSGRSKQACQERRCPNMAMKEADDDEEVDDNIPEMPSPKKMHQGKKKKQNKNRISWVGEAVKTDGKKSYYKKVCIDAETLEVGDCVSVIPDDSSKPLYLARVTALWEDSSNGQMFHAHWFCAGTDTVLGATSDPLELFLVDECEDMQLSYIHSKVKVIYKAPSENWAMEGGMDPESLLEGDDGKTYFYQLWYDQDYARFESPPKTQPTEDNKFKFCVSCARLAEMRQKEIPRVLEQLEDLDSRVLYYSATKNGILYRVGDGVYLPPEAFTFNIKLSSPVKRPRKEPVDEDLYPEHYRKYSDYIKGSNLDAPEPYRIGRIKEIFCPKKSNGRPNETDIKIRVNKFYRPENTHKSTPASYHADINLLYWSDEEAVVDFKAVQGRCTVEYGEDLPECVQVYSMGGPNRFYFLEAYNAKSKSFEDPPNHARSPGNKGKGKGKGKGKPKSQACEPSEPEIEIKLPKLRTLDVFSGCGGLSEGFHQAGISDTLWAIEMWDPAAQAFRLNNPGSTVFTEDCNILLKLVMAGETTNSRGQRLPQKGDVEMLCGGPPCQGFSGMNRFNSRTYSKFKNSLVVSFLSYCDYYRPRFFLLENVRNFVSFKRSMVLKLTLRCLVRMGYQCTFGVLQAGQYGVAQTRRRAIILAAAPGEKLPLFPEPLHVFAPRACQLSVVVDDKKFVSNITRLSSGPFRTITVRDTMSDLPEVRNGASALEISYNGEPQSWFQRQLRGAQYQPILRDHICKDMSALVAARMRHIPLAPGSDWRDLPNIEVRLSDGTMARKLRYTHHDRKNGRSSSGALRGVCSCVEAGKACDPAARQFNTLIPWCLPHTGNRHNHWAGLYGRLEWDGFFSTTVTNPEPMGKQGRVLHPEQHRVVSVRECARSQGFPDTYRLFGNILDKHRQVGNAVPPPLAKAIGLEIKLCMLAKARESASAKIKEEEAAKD

With `Nc1ncn([C@H]2C[C@H](O)[C@@H](CO)O2)c(=O)n1` [Decitabine, 5-azadeoxycytidine], the STING protein expression result in the experiment with STING was “increased”. Moreover, the “STING cg16983159 methylation” value in experiment [1] is given as “decreased”. Also, the “methylation state of CpG sites around cg16983159 (bisulfite sequencing)” value in experiment [2] is “cg16983159 and upstream CpG sites are demethylated, while downstream sites are not”. The entries for the “STING pathway activation (pTBK1 and pIRF3 expression) in response to cGAMP” value in the experiment on STING pathway and in the experiment with STING pathway (listed as decitabine) were “restores STING signaling” and “reactivation or enhancement of the pathway”, respectively. Besides, the “markers of downstream IFN activation (pSTAT1, IFIT1, ISG15)” value in the experiment with STING pathway (decitabine pretreatment for 5 days followed by cGAMP) is “induced”. Moreover, on DNMT1, the “DNMT1 expression (Western blot)” value is given as “significant suppression; also recorded: suppressed”. In the experiment with STING (TMEM173) mRNA, the “STING mRNA expression” value is given as “increased”. In addition, the “cGAS expression (Western blot)” value in the experiment on cGAS was “induces”.

For `Nc1nc2c(ncn2[C@@H]2O[C@@H]3COP(=O)(O)O[C@H]4[C@@H](O)[C@H](n5cnc6c(N)ncnc65)O[C@@H]4COP(=O)(O)O[C@@H]2[C@@H]3O)c(=O)[nH]1` [cGAMP, 2′3′-cGAMP], in experiment [3] (A172 cell line, high baseline STING expression), the “downstream response (pTBK1, pIRF3) to STING agonist” value is given as “strong downstream response”. For the same compound, the “downstream response (pTBK1, pIRF3) to STING agonist” value in experiment [3] (U138MG cell line, no STING expression) is “failed to activate pTBK1 or pIRF3”. In addition, the “IFIT1 induction (flow cytometry)” value in [4] is “induced selectively in TAMC”. In the experiment with GBM cell suspensions, the CXCL10 induction result is listed as “occurred only in CD14+ containing glioma cell suspensions” and the TNF induction entry is “occurred only in CD14+ containing glioma cell suspensions”. In [5], the CXCL10 induction entry is recorded as “induced” and the “type I IFNs induction” value was “induced”.
